Assay [1] relates to human 'normal' lung WI-38 cells. As to the kind of experiment: MTT proliferation assay, WI-38. In kind it is cell-based. As to the method:
(§1) Normal WI-38 diploid human lung fibroblasts and the human colorectal adenocarcinoma HT29 cells were obtained from American Type Culture Collection (Manassas, VA, USA). BJ fibroblasts expressing hTERT and SV40 early region (BJ-EHLT) were obtained as previously reported. Cells were grown in Dulbecco Modified Eagle Medium (D-MEM, Invitrogen Carlsbad, CA, USA) supplemented with 10% fetal calf serum, 2 mM L-glutamin and antibiotics.
(§2) MTT (3-(4,5-Dimethylthiazol-2-yl)-2,5-diphenyltetrazolium Bromide) assay was performed in treated and untreated cells for 96 hours. Cells were incubated with MTT solution (Sigma-Aldrich), and the purple formazan crystals were dissolved in isopropanol. Optical densities (OD) at 540 nm was determined on microplate reader.
(§3) Firstly, we investigated if they were able to efficiently promote growth inhibition of tumor cells without affecting the survival of normal cells in vitro. In Table 1 we report for each compound the concentration causing 50% of growth inhibition (GI50) calculated by performing a proliferation assay in the human colon cancer cell line HT-29 or in the human ‘normal’ lung WI-38 cells. […] On the basis of results described so far, we decided to exclude from the further analysis ligand 10 for its high value of hERG inhibition (95%) (Table 1).
Background: Tetrazolium dyes change colour on reduction, which living cells bring about.

Assay [2] deals with human colon cancer cell line HT-29. The experiment in a line: MTT proliferation assay, HT-29. The settings on record: 96 hours. In kind it is cell-based. How it is done:
as §1, §2, §3

Usually GI50 stands for the concentration at which growth is held to half of that of the control. Read a high GI50 as less potent growth inhibition. On to `CC(=O)NCC#Cc1ccc2c3cccc4c3c([n+](C)c2c1)-c1ccccc1N4C` [Compound 8], for which the “Ratio PMX WI38/HT29” value in assay [1] (GI50 WI-38 / GI50 HT-29) is 33,5. Moreover, the 50% growth inhibitory concentration (GI50) in assay [1] (Homo sapiens, WI-38, MTT, 96 hours) was found to be 25.1 µM; in assay [2], 0.75 µM.

Source of the values: PMC4193996 (Journal of Experimental & Clinical Cancer Research : CR, 2014).
